Laboratory results as given in ChEMBL document CHEMBL1201862, “PubChem BioAssay data set” (2004).
Calls of active or inactive are those of the source.

Tests used:
[1] = target: Cyclin-dependent kinase 5/CDK5 activator 1 (Homo sapiens, UniProt Q00535); experiment: blockade of human CDK5 activity – biochemical, cherry-picked samples, set 2, dose response (AID 504545)
[2] = Counterscreen for activators of the function of SWI/SNF related, matrix associated, actin dependent regulator of chromatin, subfamily a, member 2 (SMARCA2, BRM): Luminescence-based cell-based high throughput dose response assay to identify non-selective compounds using the VP16 reporter assay.; type: functional
[3] = target: SWI/SNF-related matrix-associated actin-dependent regulator of chromatin subfamily A member 2 (Homo sapiens, UniProt P51531); experiment: Luminescence-based cell-based high throughput dose response assay to identify activators of the function of SWI/SNF related, matrix associated, actin dependent regulator of chromatin, subfamily a, member 2 (SMARCA2, BRM).; type: functional
[4] = target: T1, Streptokinase A (Streptococcus pyogenes serotype M1, UniProt P10520); experiment: viability-normalized secreted streptokinase activity reduction – plasminogen activation absorbance, OD405, dose response (AID 1914); type: functional, Streptococcus pyogenes M1 GAS;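 also: secreted streptokinase activity via plasminogen activation per viability signal from cell pellet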
T1 sequence (P10520 whole entry): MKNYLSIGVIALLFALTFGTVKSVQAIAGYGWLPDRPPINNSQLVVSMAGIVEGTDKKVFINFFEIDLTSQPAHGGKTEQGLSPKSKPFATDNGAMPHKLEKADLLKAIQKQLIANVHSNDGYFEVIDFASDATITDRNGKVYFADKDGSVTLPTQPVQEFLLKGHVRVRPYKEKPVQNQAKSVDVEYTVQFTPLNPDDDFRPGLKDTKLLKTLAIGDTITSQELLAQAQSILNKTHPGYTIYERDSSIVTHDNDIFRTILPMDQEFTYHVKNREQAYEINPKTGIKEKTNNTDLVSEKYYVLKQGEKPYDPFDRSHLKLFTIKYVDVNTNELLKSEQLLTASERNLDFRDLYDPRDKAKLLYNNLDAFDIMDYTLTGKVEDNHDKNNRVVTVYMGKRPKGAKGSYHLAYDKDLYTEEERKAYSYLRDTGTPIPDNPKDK

[5] = target: G-protein coupled receptor 35 (Homo sapiens, UniProt Q9HC97); experiment: inhibition of zaprinast-stimulated GPR35 beta-arrestin translocation – imaging, U2OS, beta-arrestin-GFP, zaprinast agonist, primary screen (AID 2058); type: functional;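 also: antagonist potency meaning inhibition of agonist-induced arrestin redistribution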
[6] = test system: Streptococcus sp. 'group A'; experiment: Streptococcus pyogenes SK(-)GAS viability under kanamycin – luminescence, BacTiterGlo, confirmation, counter-screen for streptokinase expression inhibitor project, dose response (AID 1900); type: functional, organism-based
[7] = test system: Streptococcus; experiment: GAS UMAA2166 growth inhibition – luminescence, BacTiterGlo, counter-screen for streptokinase expression inhibitor project, dose response (AID 1915); type: functional, organism-based;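 also: potency for reduction of bacterial viability or growth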
[8] = target: T2, Voltage-gated N-type calcium channel alpha-1B subunit/Amyloid beta A4 precursor protein-binding family A member 1 (Homo sapiens, UniProt Q00975+Q02410); experiment: disruptors of Mint-PDZ/N-type channel peptide interaction – biochemical, HTRF, set 2, SAR follow-up (AID 434980); type: functional
T2 sequence (Q00975 whole entry): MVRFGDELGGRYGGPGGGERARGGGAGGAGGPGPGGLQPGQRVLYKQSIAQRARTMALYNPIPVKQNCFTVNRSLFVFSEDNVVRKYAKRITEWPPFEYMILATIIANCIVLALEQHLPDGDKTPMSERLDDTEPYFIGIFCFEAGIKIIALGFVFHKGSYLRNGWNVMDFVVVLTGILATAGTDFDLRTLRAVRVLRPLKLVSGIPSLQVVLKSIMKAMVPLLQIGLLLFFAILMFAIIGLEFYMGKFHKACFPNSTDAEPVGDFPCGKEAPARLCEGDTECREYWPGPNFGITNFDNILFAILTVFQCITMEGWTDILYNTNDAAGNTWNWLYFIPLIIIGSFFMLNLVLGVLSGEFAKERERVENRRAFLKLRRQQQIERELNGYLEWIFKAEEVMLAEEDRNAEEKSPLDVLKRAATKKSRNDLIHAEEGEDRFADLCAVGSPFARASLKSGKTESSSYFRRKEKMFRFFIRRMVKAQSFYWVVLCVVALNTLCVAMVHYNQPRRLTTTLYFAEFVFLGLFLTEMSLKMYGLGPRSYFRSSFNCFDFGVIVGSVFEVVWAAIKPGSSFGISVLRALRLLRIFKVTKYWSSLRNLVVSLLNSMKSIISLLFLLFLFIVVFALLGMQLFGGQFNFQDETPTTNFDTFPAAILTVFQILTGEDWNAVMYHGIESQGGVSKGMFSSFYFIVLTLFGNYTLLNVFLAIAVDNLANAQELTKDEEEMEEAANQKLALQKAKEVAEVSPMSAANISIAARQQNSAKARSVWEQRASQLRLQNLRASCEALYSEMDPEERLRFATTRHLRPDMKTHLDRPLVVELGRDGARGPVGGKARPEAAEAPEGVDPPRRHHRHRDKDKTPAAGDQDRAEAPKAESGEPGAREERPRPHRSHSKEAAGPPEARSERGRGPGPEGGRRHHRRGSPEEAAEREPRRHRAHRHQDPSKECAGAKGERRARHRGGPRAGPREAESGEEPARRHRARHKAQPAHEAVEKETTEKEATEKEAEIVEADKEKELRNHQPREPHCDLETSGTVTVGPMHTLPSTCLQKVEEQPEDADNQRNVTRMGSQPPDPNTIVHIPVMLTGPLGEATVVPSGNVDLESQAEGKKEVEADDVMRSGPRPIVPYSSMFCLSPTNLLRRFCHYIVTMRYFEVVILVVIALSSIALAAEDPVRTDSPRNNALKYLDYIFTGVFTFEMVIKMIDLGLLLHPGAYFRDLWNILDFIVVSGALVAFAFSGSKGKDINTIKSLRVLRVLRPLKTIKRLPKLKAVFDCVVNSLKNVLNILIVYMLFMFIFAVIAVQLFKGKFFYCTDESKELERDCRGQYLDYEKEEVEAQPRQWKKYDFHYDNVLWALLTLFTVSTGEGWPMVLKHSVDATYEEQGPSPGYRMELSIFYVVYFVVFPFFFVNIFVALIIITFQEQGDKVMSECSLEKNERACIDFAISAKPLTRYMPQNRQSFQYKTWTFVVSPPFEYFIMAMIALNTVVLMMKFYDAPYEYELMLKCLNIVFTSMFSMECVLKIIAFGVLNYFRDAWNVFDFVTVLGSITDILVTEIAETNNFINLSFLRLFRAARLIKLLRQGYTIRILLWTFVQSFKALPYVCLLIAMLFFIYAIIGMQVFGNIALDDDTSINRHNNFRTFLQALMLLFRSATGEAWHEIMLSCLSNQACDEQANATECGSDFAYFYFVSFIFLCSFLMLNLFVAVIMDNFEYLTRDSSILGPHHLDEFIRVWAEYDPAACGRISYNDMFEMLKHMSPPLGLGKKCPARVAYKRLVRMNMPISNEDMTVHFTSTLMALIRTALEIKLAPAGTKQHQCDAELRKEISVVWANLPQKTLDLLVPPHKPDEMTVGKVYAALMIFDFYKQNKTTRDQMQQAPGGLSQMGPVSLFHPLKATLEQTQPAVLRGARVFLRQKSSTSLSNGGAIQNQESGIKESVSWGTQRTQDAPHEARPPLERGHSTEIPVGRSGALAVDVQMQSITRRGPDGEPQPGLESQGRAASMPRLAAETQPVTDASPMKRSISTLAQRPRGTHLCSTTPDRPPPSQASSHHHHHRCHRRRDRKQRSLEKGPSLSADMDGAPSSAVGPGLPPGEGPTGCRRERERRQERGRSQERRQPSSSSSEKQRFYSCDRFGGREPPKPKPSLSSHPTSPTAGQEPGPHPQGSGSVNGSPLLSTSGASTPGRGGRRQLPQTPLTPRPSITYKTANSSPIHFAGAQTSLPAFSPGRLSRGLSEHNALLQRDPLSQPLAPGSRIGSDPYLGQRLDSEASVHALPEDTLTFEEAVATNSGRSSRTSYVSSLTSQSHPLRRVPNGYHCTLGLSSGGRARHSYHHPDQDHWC
T2 sequence (Q02410 whole entry): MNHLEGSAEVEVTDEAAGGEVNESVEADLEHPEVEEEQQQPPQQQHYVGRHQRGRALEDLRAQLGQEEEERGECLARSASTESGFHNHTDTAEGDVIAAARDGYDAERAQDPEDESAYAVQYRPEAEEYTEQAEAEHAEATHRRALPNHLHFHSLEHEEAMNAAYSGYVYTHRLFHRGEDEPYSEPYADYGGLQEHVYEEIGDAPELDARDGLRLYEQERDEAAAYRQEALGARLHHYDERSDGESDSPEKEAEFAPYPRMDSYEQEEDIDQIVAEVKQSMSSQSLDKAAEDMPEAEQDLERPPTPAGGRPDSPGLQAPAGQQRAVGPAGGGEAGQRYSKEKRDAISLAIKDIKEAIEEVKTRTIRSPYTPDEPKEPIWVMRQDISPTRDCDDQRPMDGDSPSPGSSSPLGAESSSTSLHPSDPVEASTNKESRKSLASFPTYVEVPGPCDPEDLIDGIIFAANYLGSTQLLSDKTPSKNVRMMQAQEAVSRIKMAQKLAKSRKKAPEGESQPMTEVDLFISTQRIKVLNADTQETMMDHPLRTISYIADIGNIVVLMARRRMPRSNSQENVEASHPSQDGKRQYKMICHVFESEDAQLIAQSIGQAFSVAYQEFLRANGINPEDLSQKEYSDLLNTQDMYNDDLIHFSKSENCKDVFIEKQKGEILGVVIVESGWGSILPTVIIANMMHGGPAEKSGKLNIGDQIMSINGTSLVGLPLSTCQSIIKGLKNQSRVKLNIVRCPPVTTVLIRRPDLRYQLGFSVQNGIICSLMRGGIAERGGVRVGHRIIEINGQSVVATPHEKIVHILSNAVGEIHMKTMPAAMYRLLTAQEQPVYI

[9] = target: T2, Voltage-gated N-type calcium channel alpha-1B subunit/Amyloid beta A4 precursor protein-binding family A member 1; experiment: disruptors of Mint-PDZ/N-type channel peptide interaction – biochemical, HTRF, SAR follow-up (AID 2489); type: functional
[10] = target: Wee1-like protein kinase (Homo sapiens, UniProt P30291); experiment: HeLa cell cycle G2/M accumulation – FACS, mechanism study for Wee1 degradation inhibitor project, late-stage follow-up, panel member Wee1 Degradation (AID 2088)
[11] = target: G2/mitotic-specific cyclin-B1 (Homo sapiens, UniProt P14635); experiment: HeLa cell cycle G2/M accumulation – FACS, mechanism study for Wee1 degradation inhibitor project, late-stage follow-up, panel member Cyclin B Degradation (AID 2088)
[12] = target: Neurotensin receptor type 1 (Homo sapiens, UniProt P30989); type: functional;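 also: Image-based confirmatory dose-response assay measuring agonist activity at NTR1; NTR1-expressing U2OS osteosarcoma cells imaged for beta-arrestin GFP spot formation; agonist potency where compounds increase beta-arrestin recruitment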
[13] = target: Hexokinase HKDC1 (Homo sapiens, UniProt Q2TB90); experiment: inhibition of HKDC1 glucose phosphorylation – biochemical, W721R variant, dose response (AID 504729); type: functional
[14] = target: T3, Replicative DNA helicase DnaB (Mycobacterium tuberculosis, UniProt P9WMR3); experiment: DnaB intein splicing inhibitors, dose response, biochemical, cell-free fluorescence (AID 449749); type: functional
T3 sequence (P9WMR3 whole entry): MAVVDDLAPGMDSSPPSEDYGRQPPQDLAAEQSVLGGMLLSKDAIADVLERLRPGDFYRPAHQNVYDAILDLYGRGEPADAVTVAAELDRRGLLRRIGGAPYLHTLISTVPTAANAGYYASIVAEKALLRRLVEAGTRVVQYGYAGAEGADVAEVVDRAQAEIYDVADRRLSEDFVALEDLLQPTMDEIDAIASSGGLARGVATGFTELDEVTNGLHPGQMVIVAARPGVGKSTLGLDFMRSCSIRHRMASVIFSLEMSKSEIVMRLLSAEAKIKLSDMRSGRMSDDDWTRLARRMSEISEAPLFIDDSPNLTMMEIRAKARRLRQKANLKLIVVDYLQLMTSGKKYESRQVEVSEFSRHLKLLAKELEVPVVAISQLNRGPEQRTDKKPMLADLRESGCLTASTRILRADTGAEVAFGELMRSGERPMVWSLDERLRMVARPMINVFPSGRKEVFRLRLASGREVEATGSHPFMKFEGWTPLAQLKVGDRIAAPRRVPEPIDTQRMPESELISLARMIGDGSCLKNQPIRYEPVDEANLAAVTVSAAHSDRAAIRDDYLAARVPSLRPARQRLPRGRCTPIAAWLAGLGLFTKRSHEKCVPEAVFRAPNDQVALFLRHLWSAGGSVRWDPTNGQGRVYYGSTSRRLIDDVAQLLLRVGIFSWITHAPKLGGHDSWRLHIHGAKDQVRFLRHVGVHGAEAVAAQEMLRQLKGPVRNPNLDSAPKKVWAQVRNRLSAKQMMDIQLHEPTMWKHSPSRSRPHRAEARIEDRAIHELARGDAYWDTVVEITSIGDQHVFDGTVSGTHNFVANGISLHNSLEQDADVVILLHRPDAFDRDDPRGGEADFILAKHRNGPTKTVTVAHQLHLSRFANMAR

[15] = target: T4, Protein RecA (Mycobacterium tuberculosis, UniProt P9WHJ3); experiment: Fluorescence Cell-Free Homogeneous Dose Retest to Identify Inhibitors of RecA-Intein Splicing Activity. [Related pubchem assays (depositor defined):AID2097, AID2223, AID489010, AID492950]; type: functional
T4 sequence (P9WHJ3 whole entry): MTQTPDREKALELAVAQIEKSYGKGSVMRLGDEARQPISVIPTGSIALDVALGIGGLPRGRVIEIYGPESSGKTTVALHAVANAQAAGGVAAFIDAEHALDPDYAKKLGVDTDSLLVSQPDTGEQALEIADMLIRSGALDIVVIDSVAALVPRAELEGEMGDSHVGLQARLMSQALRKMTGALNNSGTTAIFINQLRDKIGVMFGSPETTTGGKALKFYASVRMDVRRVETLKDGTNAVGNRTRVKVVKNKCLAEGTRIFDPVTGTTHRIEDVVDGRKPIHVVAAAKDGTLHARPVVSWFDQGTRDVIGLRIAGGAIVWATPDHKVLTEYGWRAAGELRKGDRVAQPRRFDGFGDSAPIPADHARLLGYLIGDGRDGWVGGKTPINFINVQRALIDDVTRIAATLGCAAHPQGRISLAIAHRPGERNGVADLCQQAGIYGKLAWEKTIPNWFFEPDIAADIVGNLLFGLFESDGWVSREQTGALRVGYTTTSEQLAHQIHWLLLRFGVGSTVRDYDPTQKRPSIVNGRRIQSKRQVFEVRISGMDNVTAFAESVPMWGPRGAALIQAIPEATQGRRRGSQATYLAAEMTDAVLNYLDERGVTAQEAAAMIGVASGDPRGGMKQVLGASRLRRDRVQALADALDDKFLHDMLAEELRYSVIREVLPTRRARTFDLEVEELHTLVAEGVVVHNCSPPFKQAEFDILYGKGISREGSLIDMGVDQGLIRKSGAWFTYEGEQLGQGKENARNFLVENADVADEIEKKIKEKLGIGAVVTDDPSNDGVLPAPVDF

[16] = target: Dual specificity protein phosphatase 3 (Homo sapiens, UniProt P51452); experiment: inhibition constants for human DUSP3 – biochemical, colorimetric, SAR follow-up (AID 2004)
[17] = target: Trypsin (Sus scrofa, UniProt P00761); experiment: trypsin protease activity blockade – biochemical, quenched peptide fluorescence, cherry-pick, selectivity assay for Rce1 protease inhibitor project, dose response (AID 488789)
Sequence of Trypsin (P00761 whole entry): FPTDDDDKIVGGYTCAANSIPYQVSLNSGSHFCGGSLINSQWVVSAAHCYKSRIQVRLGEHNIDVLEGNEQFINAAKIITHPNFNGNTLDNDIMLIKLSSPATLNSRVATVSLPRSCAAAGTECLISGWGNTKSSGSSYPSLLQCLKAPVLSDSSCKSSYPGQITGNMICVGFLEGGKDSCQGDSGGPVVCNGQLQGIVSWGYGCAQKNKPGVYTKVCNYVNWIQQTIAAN

[18] = target: T5, Mu-type opioid receptor (Homo sapiens, UniProt P35372); experiment: mu opioid receptor activators, image-based, SAR follow-up (AID 2352); type: functional
T5 sequence (P35372 whole entry): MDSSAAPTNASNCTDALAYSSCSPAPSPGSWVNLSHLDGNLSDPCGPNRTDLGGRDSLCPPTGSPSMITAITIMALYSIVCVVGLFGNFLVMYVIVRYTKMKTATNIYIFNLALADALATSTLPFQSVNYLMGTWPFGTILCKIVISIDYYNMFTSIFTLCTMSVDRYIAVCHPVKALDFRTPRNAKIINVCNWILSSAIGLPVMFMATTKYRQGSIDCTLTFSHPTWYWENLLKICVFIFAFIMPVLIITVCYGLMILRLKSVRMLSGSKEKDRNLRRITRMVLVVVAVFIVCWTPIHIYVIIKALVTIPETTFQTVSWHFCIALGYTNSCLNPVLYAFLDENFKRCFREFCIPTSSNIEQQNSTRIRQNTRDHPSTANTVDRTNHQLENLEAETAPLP

[19] = target: T6, Kappa-type opioid receptor (Homo sapiens, UniProt P41145); experiment: kappa opioid receptor blockers, image-based, SAR follow-up (AID 2348); type: functional
T6 sequence (P41145 whole entry): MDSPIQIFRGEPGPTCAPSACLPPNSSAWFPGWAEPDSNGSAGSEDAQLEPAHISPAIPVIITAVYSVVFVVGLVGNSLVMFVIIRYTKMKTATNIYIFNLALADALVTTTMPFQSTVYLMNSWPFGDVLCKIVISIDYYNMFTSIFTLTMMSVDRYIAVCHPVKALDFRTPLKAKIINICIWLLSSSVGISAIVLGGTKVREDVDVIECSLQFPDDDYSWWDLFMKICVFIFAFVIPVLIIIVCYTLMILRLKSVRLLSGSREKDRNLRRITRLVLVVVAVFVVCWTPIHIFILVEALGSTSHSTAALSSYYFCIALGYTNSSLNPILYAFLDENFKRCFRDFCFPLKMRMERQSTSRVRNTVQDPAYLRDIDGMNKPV

[20] = target: T6, Kappa-type opioid receptor; experiment: kappa opioid receptor blockers, cell-based, luminescence, beta-arrestin, SAR follow-up (AID 2285); type: functional
[21] = target: T7, Delta-type opioid receptor (Homo sapiens, UniProt P41143); experiment: delta opioid receptor blockers – image-based, SAR follow-up (AID 2357); type: functional
T7 sequence (P41143 whole entry): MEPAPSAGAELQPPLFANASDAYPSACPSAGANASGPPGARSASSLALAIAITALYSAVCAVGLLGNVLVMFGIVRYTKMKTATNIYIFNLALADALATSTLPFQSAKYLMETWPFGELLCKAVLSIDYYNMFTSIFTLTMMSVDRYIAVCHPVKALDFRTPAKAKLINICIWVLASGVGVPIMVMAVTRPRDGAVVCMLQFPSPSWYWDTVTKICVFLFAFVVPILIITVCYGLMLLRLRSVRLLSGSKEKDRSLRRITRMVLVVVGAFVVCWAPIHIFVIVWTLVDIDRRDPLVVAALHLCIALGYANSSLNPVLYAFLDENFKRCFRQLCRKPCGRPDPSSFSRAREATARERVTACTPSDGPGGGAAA

[22] = target: T7, Delta-type opioid receptor; experiment: DOR agonists, SAR follow-up, image-based (AID 2370); type: functional
[23] = target: T6, Kappa-type opioid receptor; experiment: kappa opioid receptor activation potency – imaging, image-based, SAR follow-up (AID 2359); type: functional
[24] = target: T5, Mu-type opioid receptor; experiment: mu opioid receptor blockers – image-based, SAR follow-up (AID 2420); type: functional;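 also: compounds added before stimulation of receptor with agonist DAMGO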
[25] = Luminescence Cell-Based Dose Response HTS to Identify Inhibitors of 5'UTR Stem-Loop Driven Prion Protein mRNA Translation in H4 Neuroglioblastoma Cells. [Related pubchem assays: 1827 (Project Summary), 1813 (Primary HTS)]; type: functional
[26] = target: Scavenger receptor class B member 1 (Mus musculus, UniProt Q61009); experiment: mouse SR-BI DiI-HDL uptake blockers – ldlA[mSR-BI] cells, fluorescence, cherry pick, dose response (AID 493194); type: functional, cell-based;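 also: cellular uptake of fluorescent DiI-labeled HDL measured as cell fluorescence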
[27] = alpha-synuclein stem-loop luciferase translation blockers – H4 neuroglioma cells, luminescence, confirmation (AID 1988); type: functional, cell-based
[28] = luciferase reporter signal suppression in cells – H4 neuroglioma cells, luminescence, dose response (AID 1990); type: functional, cell-based
[29] = test system: Vero; experiment: cells; type: functional, cell-based; settings: Chlorocebus sabaeus
[30] = target: Female germline-specific tumor suppressor gld-1 (Caenorhabditis elegans, UniProt Q17339); experiment: blockers of GLD-1/TGE RNA complex formation – biochemical, fluorescence polarization, C. elegans, dose response (AID 2802);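 also: fluorescence polarization of labeled TGE RNA bound by purified gld-1 protein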
Sequence of Female germline-specific tumor suppressor gld-1 (Q17339 whole entry): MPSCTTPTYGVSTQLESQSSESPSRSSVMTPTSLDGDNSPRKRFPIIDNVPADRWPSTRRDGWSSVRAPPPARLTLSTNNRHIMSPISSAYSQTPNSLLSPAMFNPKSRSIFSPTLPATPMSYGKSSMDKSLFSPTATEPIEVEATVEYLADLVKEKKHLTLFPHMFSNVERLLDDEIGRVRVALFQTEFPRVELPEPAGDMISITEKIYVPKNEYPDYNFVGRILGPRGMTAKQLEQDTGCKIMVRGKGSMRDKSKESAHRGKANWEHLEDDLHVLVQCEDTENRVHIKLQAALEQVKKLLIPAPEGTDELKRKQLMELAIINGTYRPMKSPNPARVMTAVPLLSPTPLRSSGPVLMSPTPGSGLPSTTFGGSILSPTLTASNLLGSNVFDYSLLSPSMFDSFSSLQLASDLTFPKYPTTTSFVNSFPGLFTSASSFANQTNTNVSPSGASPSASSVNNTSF

[31] = target: Protein Rev (Human immunodeficiency virus type 1 group M subtype B (isolate HXB2)(HIV-1), UniProt P04618); experiment: blockers of HIV Rev/RRE RNA complex – biochemical, fluorescence polarization, HIV-1, dose response (AID 434976); set-up: species or system Human immunodeficiency virus 1

## CC(C)[C@H](CO)Nc1nc(NCc2ccc(S(N)(=O)=O)cc2)c2ncn(C(C)C)c2n1
[1]
  AC50: 1.93 µM (active)
[2]
  EC50: > 91.2 µM (inactive)
[3]
  EC50: > 91.2 µM (inactive)

## CCOc1ccc(N(C)c2ccc(/C=C3/SC(=S)NC3=O)cc2)cc1
[4]
  EC50: > 150 µM (not active)
[5]
  IC50: 0.701 µM (active)
[6]
  EC50: 5.43 µM (active)
[7]
  EC50: 20.7 µM (active)

## COc1ccccc1CNC(=O)COC(=O)c1cccc2ccccc12
[8]
  IC50: 19.4 µM (active)
[9]
  IC50: > 56.8 µM (inactive)

## Cc1cc(NC(=O)c2cccc(F)c2)n(-c2nc(=O)cc(C)[nH]2)n1
[10]
  EC50: > 49.7 µM (inactive)
[11]
  EC50: > 49.7 µM (inactive)

## Cc1cc(C)n(-c2nc(N(c3ccccc3)c3ccccc3)nc(-n3nc(C)cc3C)n2)n1
[12]
  EC50: 6.21 µM (active)

## O=c1c2ccccc2nc(/C=C/c2cccnc2)n1CCc1ccccc1
[13]
  IC50: 17.5 µM (active)
[14]
  AC50: 60.6 µM (active)
[15]
  EC50: 12 µM (active)

## COC(=O)c1ccc(COc2cc3oc(=O)cc(-c4ccccc4)c3cc2Cl)cc1
[16]
  Ki: 28.9 µM (inactive)

## Cc1ccc(S(=O)(=O)c2cn(C)c3cc(N4CCOCC4)c(F)cc3c2=O)cc1
[17]
  AC50: 55.8 µM (active)

## O=C(Cn1c(=O)c2cccn2c2cccnc21)NCCCN1CCN(c2ccc(F)cc2)CC1
[18]
  EC50: > 32 µM (inactive)
[19]
  IC50: 15.2 µM (inactive)
[20]
  IC50: > 10 µM (inactive)
[21]
  IC50: > 32 µM (inactive)
[22]
  EC50: > 32 µM (inactive)
[23]
  EC50: > 32 µM (inactive)
[24]
  IC50: > 32 µM (inactive)

## Cc1cc(SC(C)C(=O)Nc2ncc(Cl)cc2Cl)nc2ccccc12 (stereo unspecified)
[25]
  EC50: > 120 µM (not active)
[26]
  AC50: 0.633 µM (active)
[27]
  EC50: 15.1 µM (active)
[28]
  EC50: > 120 µM (not active)
[29]
  IC50: 19.5 µM (active)

## Cc1ccc(S(=O)(=O)Nc2cc3c(C(=O)Nc4ccccc4)c(C)oc3c3ccccc23)cc1
[30]
  IC50: 0.725 µM (active)
[31]
  IC50: > 75.4 µM (not active)
